Source: PMC11313193, “Which Constituents Determine the Antioxidant Activity and Cytotoxicity of Garlic? Role of Organosulfur Compounds and Phenolics” (International Journal of Molecular Sciences, 2024)

Key:
[1] = system: PEO1 ovarian cancer cells; experiment: Cytotoxicity (Neutral Red), PEO1 cells; format: cell-based, human; settings: 24 h exposure
Method: (§1) The PEO1 cells, SKOV-3 cells, and MRC-5 cells were grown at 37 °C and 5% CO2 in RPMI + GlutaMAX medium, McCoy’s 5A medium, and the DMEM + GlutaMAX medium, respectively. The media were supplemented with 10% heat-inactivated fetal calf serum and penicillin/streptomycin. The cell viability was evaluated using the Trypan Blue exclusion test.
(§2) In the cytotoxicity experiments, cells were grown in wells of sterile 96-well plates. The seeding density was 1 × 10^4 for SKOV-3 and MRC-5 cells and 1.5 × 10^4 for PEO1 cells. The cells were allowed to grow in the incubator for 24 h. Then, the medium was removed and new medium with an examined compound was added. The stock solutions of the compounds studied diluted with the appropriate cell medium were filtered before the addition to the cells using 0.22 µm filters. No more than 0.02% of DMSO was present in the media, and it had no discernible impact on the treated cells. Cells not exposed to any compound served as a control. After another 24 h incubation, the medium was gently aspirated, and the wells were added with 2% sterile Neutral Red solution (100 µL). The plates were then incubated (37 °C, 5% CO2) for one hour. The Neutral Red solution was aspirated, and the wells were washed two times with warm (37 °C) PBS. Subsequently, 100 µL of a permeabilization mixture (water/ethanol/glacial acetic acid, 50/49/1, v/v/v) was introduced to each well. The plates were shaken at 700 rpm for 20 min and absorbance was read at a wavelength of 540 nm against 620 nm.

[2] = system: osteosarcoma MG63 cells; parameters: method as in PMID 27158383; settings: after 48 h; read-out: Concentration decreasing viability of MG63 cells to 50%; cited from earlier work
[3] = Ferric reducing antioxidant power (FRAP) assay; settings: 30 min at ambient temperature, pH 3.6, absorbance at 593 nm
Method: The method proposed by Benzie and Strain [91] was employed with a slight modification. Briefly, increasing volumes of solutions of the studied compounds were added to wells of a 96-well microplate prefilled with 200 μL of the working solution composed of 0.3 M acetate buffer, pH 3.6 (10 volumes), 10 mM 2,4,6-tris(2-pyridyl)-s-triazine (TPTZ), in 40 mM HCl (1 volume) and 20 mM FeCl3 (1 volume), was prepared immediately before use. After 30 min incubation at ambient temperature and the absorbance of the Fe^2+-TPTZ complex was read at 593 nm.
(§3) All assays were standardized with respect to Trolox. The antioxidant activity was calculated in each case as a ratio of the slope of the dependence of absorbance change on the concentration of a studied compound to the slope of the dependence of absorbance change of standard samples concerning Trolox on the concentration of Trolox. Antioxidant activities were expressed in moles of Trolox equivalents (TE)/mol of a studied compound, as described previously.

[4] = system: MRC-5 fibroblasts; experiment: Cytotoxicity (Neutral Red), MRC-5 fibroblasts; format: cell-based, human; settings: 24 h exposure
Method: as §1, §2

[5] = DPPH^● decolorization assay; settings: 30 min at ambient temperature in the dark, absorbance at 517 nm
Method: The assay was performed as described in a previous article. Briefly, increasing volumes of solutions of the studied compounds were introduced to wells of a 96-well microplate, each with 200 μL of 0.3 mM DPPH^● solution in methanol. The reaction was allowed to proceed for 30 min at ambient temperature in the dark, and absorbance at 517 nm was read. The absorbance decrease was a measure of the antioxidant activity.
as §3

[6] = system: PC-3 prostate cancer cells; parameters: method as in PMID 26124008; settings: read-out: Concentration decreasing viability of PC-3 cells to 50%; cited from earlier work
[7] = system: MDA-MB-231 cells; parameters: method as in PMID 27177074; settings: 100 μM; cited from earlier work
[8] = ABTS^● decolorization assay; settings: 30 min incubation at room temperature, absorbance at 734 nm
Method: A modification of the ABTS^● decolorization assay was employed. Briefly, various volumes of solutions of the studied compounds were introduced to wells of a 96-well microplate, each prefilled 200 μL of ABTS^● solution. […] The drop in absorbance after 30 min incubation at room temperature was read as a measure of the antioxidant activity.
as §3

[9] = system: osteosarcoma 143B cells; parameters: method as in PMID 27158383; settings: after 48 h; read-out: Concentration decreasing viability of 143B cells to 50%; cited from earlier work
[10] = system: LNCaP prostate cancer cells; parameters: method as in PMID 26124008; settings: read-out: Concentration decreasing viability of LNCaP cells to 50%; cited from earlier work
[11] = system: SKOV-3 ovarian cancer cells; experiment: Cytotoxicity (Neutral Red), SKOV-3 cells; format: cell-based, human; settings: 24 h exposure
Method: as §1, §2

[12] = system: HT-1080 fibrosarcoma cells; parameters: method as in PMID 21116690; settings: read-out: Concentration decreasing the viability of HT-1080 cells (by 50%); cited from earlier work
[13] = system: MDA-MB-231 cells; parameters: method as in PMID 29048370; settings: read-out: Concentration decreasing the viability of MDA-MB-231 cells (by 50%); cited from earlier work
[14] = system: cervical cancer HeLa cells; parameters: method as in PMID 21199742; settings: after 24 h exposure; read-out: Concentration decreasing the viability of HeLa cells by 50%; cited from earlier work

COc1cc(/C=C/C(=O)O)ccc1O [Ferulic acid, ferulic acid]
Concentration range with no significant decrease in viability of PEO1 cells [1]: 0 to 1000 µM
IC50 [2]: 66 µM
Antioxidant activity, FRAP [3]: 0.554 ± 0.017 mol Trolox equivalents (TE)/mol compound
Concentration range with no significant decrease in viability of MRC-5 cells [4]: 0 to 1000 µM
Antioxidant activity, DPPH^● Decolorization [5]: 0.185 ± 0.070 mol Trolox equivalents (TE)/mol compound
IC50 [6]: 300 µM
Viability of MDA-MB-231 cells (decreased to) [7]: about 75%
Antioxidant activity, ABTS^● Decolorization [8]: 1.409 ± 0.096 mol Trolox equivalents (TE)/mol compound
IC50 [9]: 60 µM
IC50 [10]: 500 µM
Concentration range with no significant decrease in viability of SKOV-3 cells [11]: 0 to 1000 µM

O=C(O)/C=C/c1ccc(O)c(O)c1 [Caffeic acid, caffeic acid]
IC50 [12]: 30 µM
Concentration at which viability of PEO1 cells was lowered ([1]; p < 0.05): 300 to 1000 µM
IC50 ([1]; Homo sapiens, PEO1, Neutral Red, read-out: IC50 PEO1): 245 µM
Antioxidant activity, FRAP [3]: 0.019 ± 0.002 mol Trolox equivalents (TE)/mol compound
Concentration at which viability of MRC-5 cells was lowered ([4]; p < 0.05): 1000 µM
Antioxidant activity, DPPH^● Decolorization [5]: 0.001 ± 0.006 mol Trolox equivalents (TE)/mol compound
IC50 [13]: 151 µM
IC50 [14]: ~2000 µM
Antioxidant activity, ABTS^● Decolorization [8]: 0.771 ± 0.066 mol Trolox equivalents (TE)/mol compound
Concentration range with no significant decrease in viability of SKOV-3 cells [11]: up to 1000 µM
IC50 ([11]; Homo sapiens, SK-OV-3, Neutral Red, read-out: IC50 SKOV-3): 1320 µM
